Measured values from publication PMC7230232, “Secondary Metabolites from the Culture of the Marine-derived Fungus Paradendryphiella salina PC 362H and Evaluation of the Anticancer Activity of Its Metabolite Hyalodendrin” (Marine Drugs, 2020).
Values joined by “and” are separate entries in the source; they are usually repeats but may differ in a detail not shown here. Equal entries are not always repeated. Where two headings read alike, the source gives them in different places.

How the values were obtained:
3T3-F442A cells = assay: MTT cell viability assay, 3T3-F442A pre-adipocytes; assay type: cell-based, murine; details: Mus musculus
Method: (§1) Cellular viability was determined by the MTT (methylthiazolyldiphenyl-tetrazolium bromide) assay. Briefly, cells were exposed to the indicated concentrations of crude extracts or compounds 1–4 for five doubling times and then incubated for 3 h at 37 °C with MTT. Formazan crystals were then dissolved in DMSO and optical density measured at 570 nm in a microplate reader. The half-maximal inhibitory concentration (IC50) was determined. Values given for crude extracts are averages of at least two experiments done in duplicate. IC50 values calculated for the four isolated compounds and the commercially available 4-hydroxy-tamoxifen (Sigma-Aldrich) are averages of at least three experiments done in duplicate.

MDA-MB-231 = assay: MTT cell viability assay, MDA-MB-231; assay type: cell-based; details: Homo sapiens, breast, mesenchymal, invasive
Method: as §1

DLD1 = assay: MTT cell viability assay, DLD1; assay type: cell-based; details: Homo sapiens, DLD-1; colon
Method: as §1

HT29 = assay: MTT cell viability assay, HT29; assay type: cell-based; details: Homo sapiens, HT-29; colon
Method: as §1

HT29 SN-38 = assay: MTT cell viability assay, HT29 SN-38; assay type: cell-based; details: Homo sapiens, HT-29; colon; SN-38 resistant
Method: as §1

HCT116 SN-38 = assay: MTT cell viability assay, HCT116 SN-38; assay type: cell-based; details: Homo sapiens, HCT-116; colon; SN-38 resistant
Method: as §1

LOVO = assay: MTT cell viability assay, LOVO; assay type: cell-based; details: Homo sapiens, colon
Method: as §1

LS174T = assay: MTT cell viability assay, LS174T; assay type: cell-based; details: Homo sapiens, colon
Method: as §1

SW480 = assay: MTT cell viability assay, SW480; assay type: cell-based; details: Homo sapiens, colon
Method: as §1

[1] = target: T1, NADPH-dependent thioredoxin reductase (Trr1) (Saccharomyces cerevisiae, UniProt P29509); assay: In vitro reduction by NADPH thioredoxin reductase alone (NADPH consumption); assay type: biochemical; details: yeast NTR (Trr1) alone, versus ACN control
T1 construct: made in house
Method: (§2) Thioredoxin 1 (Trx1) and NADPH-dependent thioredoxin reductase (Trr1) from Saccharomyces cerevisiae were cloned and produced as described previously. Thioredoxin activity was measured spectrophotometrically (Uvikon XS; Secomam) in 1 mL cuvette by following NADPH consumption at 340 nm over 2 min. The reaction was performed in 100 µM NADPH, 246 nM of Trr1 in 30 mM Tris-HCl buffer (pH 7.9) and in the presence or not of 65 nM of Trx1. The reaction was initiated by adding 10 µL of 50 mM of 3 in acetonitrile or 10 µL of acetonitrile (ACN, Control experiment). For each condition, NADPH consumption experiments were performed in triplicate and results were represented as the mean ± SD. The significance of the results was evaluated by Student’s t-test.

[2] = target: T2, thioredoxin system (Trr1+Trx1) (Saccharomyces cerevisiae, UniProt P22217); assay: In vitro reduction by the reconstituted thioredoxin system (NADPH consumption); assay type: biochemical; details: versus ACN control
T2 construct: made in house
Method: as §2

MCF7-Sh-WISP2 cells = assay: Cell cycle progression by propidium iodide flow cytometry; assay type: cell-based, human; details: 380 nM
Method: Figure S5. Cell cycle progression of MCF7-Sh-WISP2 cells in response to compound 3 exposure.
After treatment with 380 nM of 3 (hyalodendrin) (corresponding to 1.9 10-5 nmol of drug per cell), cells were collected, counted and fixed with 70 % ethanol. Cells were then stained with 40 μg/mL propidium iodide (PI) (Biolegend) containing RNaseA (100 µg/mL), prior analysis on a Gallios flow cytometer (Beckman Coulter, Inc, Villepinte, France). The results were analyzed using the Venturi One V6 software (Applied Cytometry).
(1 picture or pasted object on this page, not shown here)

T1 sequence (P29509 whole entry): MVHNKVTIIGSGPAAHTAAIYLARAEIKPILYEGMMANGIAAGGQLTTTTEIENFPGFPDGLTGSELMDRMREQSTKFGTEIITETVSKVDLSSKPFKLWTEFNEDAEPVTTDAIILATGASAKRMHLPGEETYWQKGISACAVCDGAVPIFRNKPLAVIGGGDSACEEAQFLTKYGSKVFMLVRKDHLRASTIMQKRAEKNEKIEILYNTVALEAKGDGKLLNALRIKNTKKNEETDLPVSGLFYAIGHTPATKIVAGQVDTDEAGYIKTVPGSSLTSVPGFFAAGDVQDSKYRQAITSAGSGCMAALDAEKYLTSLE
T2 sequence (P22217 whole entry): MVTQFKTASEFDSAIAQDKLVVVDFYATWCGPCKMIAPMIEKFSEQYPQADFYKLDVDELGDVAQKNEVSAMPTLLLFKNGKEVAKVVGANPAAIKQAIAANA

In the case of `CN1C(=O)[C@@]2(Cc3ccccc3)SS[C@]1(CO)C(=O)N2C` [Compound 3, (3R, 6R) Hyalodendrin], the IC50 (3T3-F442A cells; read-out: IC50 3T3-F442A) is reported as 0.099 µg/mL and 300 nM, the IC50 (3T3-F442A cells; read-out: IC50 3T3F442A) is reported as 305 ± 4.2 nM and the IC50 (MDA-MB-231) is reported as 132 ± 13.4 nM. The IC50 (DLD1) was 40 ± 5.8 nM, the IC50 (HT29) was 58 ± 13.7 nM and the IC50 (HT29 SN-38) was 93.8 ± 13.6 nM. For the same compound, the IC50 (HCT116 SN-38) was 43.8 ± 4.2 nM, the IC50 (LOVO) was 73.4 ± 16.4 nM and the IC50 (LS174T) was 158 ± 13 nM. The IC50 (SW480) was 164 ± 11 nM, the NADPH consumption increase [1] was “ca. three” and the NADPH consumption increase [2] was roughly 14 folds. The cell cycle progression (MCF7-Sh-WISP2 cells) was “no significant changes”.
